Measurements reported in article PMC7822123, “A Chemosensory Protein Detects Antifeedant in Locust (Locusta migratoria)” (Insects, 2020).
Entries after “also recorded” stand apart in the source; their conditions may differ. Read-outs that look alike come from different tables or passages of the source.

Key:
recombinant LmigCSPIII [1] = biological target: T1, recombinant LmigCSPIII (Locusta migratoria, UniProt Q3LB86); experiment: Fluorescent competitive binding assay with 1-NPN as reporter; settings: for binding affinity to LmigCSPIII (in words): among 78 tested compounds
T1 sequence (Q3LB86 entry or part of it): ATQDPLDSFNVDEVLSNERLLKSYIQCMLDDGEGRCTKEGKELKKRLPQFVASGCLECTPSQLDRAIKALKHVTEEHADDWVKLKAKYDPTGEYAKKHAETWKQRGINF
Procedure: Compounds (Table 2) used in the binding assay were purchased from Sigma (St. Louis, MO, USA) and were of reagent grade. Ligand binding specificity was measured with a fluorescent assay on an FS-55 emission fluorescence spectrometer (Perkin-Elmer, Waltham, MA, USA), as previously described. […] The recombinant protein was dissolved in 50 mM Tris-Buffer (pH 7.4) and titrated with aliquots of 1 mM methanol solutions of the ligands to final concentrations of […]. The florescent probe 1-NPN was excited at 337 nm and emission spectra were recorded between 380 nm and 440 nm. We used Graphpad Prism 5 software (Graphpad Software, San Diego, CA, USA) to calculate dissociation constants and draw the binding curves.

[2] = test system: Locusta migratoria fourth instar nymphs; experiment: Dual-choice feeding assay, feeding response with intact or excised antennae; assay type: in vivo
Procedure: For the role of antenna or mouthparts in the detection of AMCAL, a dual-choice experiment was performed. Newly molted fourth instar locusts of similar weights were anesthetized on ice for several minutes. Antennae were carefully removed with fine scissors, and then the locusts were fed with fresh corn leaves for 24 h. The locusts were then placed in feeding boxes, each of which contained two pieces of corn leaves of the same size of 4 × 3 cm, one treated with AMCAL in solvent, and the other one treated with solvent alone. The two pieces of corn leaves were placed about 12 cm apart. Feeding response (FR) was defined as follows: a leaf that was ingested, regardless of amount, was scored as 1, whereas no consumption was scored as 0. The experimental duration was about 1 h. When approximately 50% of the control foliage had been consumed, the experiment was terminated, and the feeding amount was determined as described above.

[3] = test system: Locusta migratoria fourth instar nymphs; experiment: Feeding bioassay: amount consumed and feeding deterrence index; assay type: in vivo
Procedure: New emerged fourth instar locust nymphs were starved 2 h before being introduced into a transparent plastic box (14 cm diameter, 8 cm high). For the non-choice experiment, the locusts were then supplied with two pieces of corn leaf (3 × 5 cm) of the same weight. One piece of the leaf was treated with an acetone solution of α-amylcinnamaldehyde (AMCAL) after the acetone evaporated completely, and the control leaf was just treated with same amount of actone. The natural concentrations of AMCAL found in non-host plants is usually less than 0.1% in weight. According to this, acetone solutions of AMCAL at concentrations of […] were used to treat corn leaves with a final concentration of 100 μg/cm^2, 50 μg/cm^2, 10 μg/cm^2, or 1 μg/cm^2, respectively.
Food consumption (S) was determined by the fresh/dry weight method as follows: a fresh corn leaf was cut in half from the main vein and weighted separately; one half was dried at 100 °C for 2 h to calculate fresh/dry weight ratio, calculated as R [34]; the other half, whose fresh weight was S1, was reserved for the feeding experiment. After feeding duration, the residual consumed leaf was dried and weighed as above, and the dry weight was labelled as S2. Food consumption was calculated as: S = S1/R − S2.
(§1) For the dual-choice experiment, the feeding deterrence index (FDI) was calculated using the formula: FDI = (C − T)/(C + T), where C and T indicated control and treated leaf consumption weights, respectively. For non-choice experiment, the FDI was calculated using the formula: FDI = (C − T)/C. A regression curve line against feeding deterrence index was created by Graphpad Prism 9 software (Graphpad Software, San Diego, CA, USA). The DC50 was defined as the concentration of AMCAL that halved the value of the feeding deterrence index.

[4] = test system: Locusta migratoria fourth instar nymphs; experiment: Dual-choice feeding assay with LmigCSPIII knockdown (dsRNA) and H2O-injected locusts; assay type: in vivo
Procedure: as §1
Double-stranded RNA was synthesized using the T7 RiboMAX™Express RNAi System (Promega, Madison, WI, USA), according to the manufacturer’s protocol. Briefly, we designed degenerate primers with a T7 promoter (Table 1) at the 5′ end based on an alignment of multiple LmigCSPIII sequences. The PCR-amplified fragment was purified and used as a template in the transcription reactions. After removing the DNA template and single-stranded RNA using a nuclease, we quantified the newly synthesized dsRNA and adjusted its concentration to 2.5 µg/µL. Locusts were anaesthetized on ice for easier handling during the injection process. dsRNA (2 µL) or DEPC (Diethy Pyrocarbonate) treated water (2 µL, Sangon Biotech) was injected into the dorsal intrasegmental membrane between the third and fourth abdominal segments of newly-molted third or fourth instar locusts using a microsyringe (Narishige, Tokyo, Japan), similarly to previous experiments.
The treatments and calculation methods for detecting the effects of suppression of LmigCSPIII on locusts are similar to in the dual-choice experiment.
To determine the effects of RNAi of LmigCSPIII on its role in detecting AMCAL, we created mutants by injecting with dsRNA of LmigCSPIII into fourth instar nymphs within 2 days after molting. These locusts were then provided with the corn leaves treated with AMCAL or solvent 72 h after injection. The duration of the experiment was 2 h.

[5] = test system: Locusta migratoria nymphs; settings: third instar, 100 μg/cm^2, after 3 or 4 days, vs control, p < 0.001
desert locust = test system: desert locust; design: method as in PMID 12770479; settings: 7 µg/g body weight; cited from earlier work
recombinant LmigCSPIII [6] = biological target: T1, recombinant LmigCSPIII; experiment: Fluorescent competitive binding assay with 1-NPN as reporter; settings: at a concentration of 10 µM
[7] = criterion for being regarded as able to bind, Figure 4, read-out: IC50 (concentration of ligand that halved the initial fluorescence of 1-NPN)

| Structure (SMILES) | IC50 (recombinant LmigCSPIII [1]; [7]) [µM] | IC50 (recombinant LmigCSPIII [1]) [µM] | also measured |
| --- | --- | --- | --- |
| Cc1cnc(C)cn1 [2,5-Dimetylpyrazine] | < 20 | – | – |
| CCCCCCCCCCCCCCCO [Pentadecanol] | < 20 | – | – |
| OC1CCCCC1 [Cyclohexanol] | – | < 20 | – |
| CCCCC/C(C=O)=C/c1ccccc1 [AMCAL, α-amylcinnamaldehyde] | < 20 | – | binding affinity to LmigCSPIII (in words) (recombinant LmigCSPIII [1]): strongest affinity; also recorded: highest affinity; Feeding response (FR) to treated leaves ([2]; 50 μg/cm^2, antennae excised): 45%; Feeding response (FR) to treated leaves ([2]; 50 μg/cm^2, antennae intact): 47%; mean consumption of food containing the chemical ([3]; 1 μg/cm^2, p > 0.05, Dunnett test): slight and insignificant decrease; mean consumption of food containing the chemical ([3]; 10 μg/cm^2, p < 0.01, Dunnett test): Significant feeding inhibition; DC50 (concentration that halved the feeding deterrence index) ([3]; from regression curve of feeding deterrence index, Figure 5D): 12 μg/cm^2; feeding deterrence index (FDI) ([4]; 1 μg/cm^2, RNAi group): −2%; feeding deterrence index (FDI) ([4]; 10 μg/cm^2, control group (H2O-injected locusts)): 50%; feeding deterrence index (FDI) ([4]; 10 μg/cm^2, locusts injected with dsRNA of LmigCSPIII): 22%; feeding deterrence index (FDI) ([4]; 50 μg/cm^2, RNAi group): 69%; weight increase of nymphs [5]: significantly less than that of the control group |
| Oc1ccccc1 [Phenol] | – | < 20 | – |
| COc1ccccc1O [Guaicacol] | < 20 | – | – |
| CCOC(=O)c1ccccc1C(=O)OCC [Diethyl phthalate] | – | < 20 | – |
| C/C=C(\C)C(=O)O[C@H]1C[C@@H](OC(C)=O)[C@@]2(C(=O)OC)CO[C@H]3[C@@H](O)[C@@](C)([C@]45O[C@@]4(C)[C@H]4C[C@@H]5O[C@@H]5OC=C[C@@]54O)[C@H]4[C@]1(CO[C@]4(O)C(=O)OC)[C@@H]32 [azadirachtin] | – | – | physiological effects in the desert locust (desert locust): reduces fitness and fertility, and interferes with molting |
| CCCCCCCCCCCCCCCCO [Hexadecanol] | < 20 | – | – |
| C=C(C)C(=O)OCCCCCCCCCCCC [Dodecyl 2-methylacrylate] | < 20 | – | – |
| CCC/C=C/C=O [trans-2-hexenal, trans-2-Hexenal] | – | < 20 | displacement of 1-NPN from LmigCSPIII (recombinant LmigCSPIII [6]): able to displace 1-NPN |
| CCCCOC(=O)c1ccccc1C(=O)OCCCC [Dibutyl phthalate] | – | < 20 | – |
| CCCCCCCC/C=C\CCCCCCCC(N)=O [oleamide, Oleamide] | – | < 20 | binding affinity to LmigCSPIII (in words) (recombinant LmigCSPIII [1]): quite high binding affinity |
| CC(O)c1ccccc1 (racemic) [DL-sec-phenethyl alcohol] | < 20 | – | – |
| CC(C)CCO [3-Methyl-1-butanol] | < 20 | – | Kd (recombinant LmigCSPIII [1]; calculated from IC50 of 1-NPN displacement, read-out: dissociation constant (KD) of competitor): 6.02 ± 0.17 µM |
| c1ccc(Nc2cccc3ccccc23)cc1 [1-NPN, N-phenyl-1-naphthylamine, reference compound] | – | – | Kd (recombinant LmigCSPIII [1]): 3.3 µM |
| Nc1cccc2cc3ccccc3cc12 [1-aminoanthracene] | – | – | binding affinity to LmigCSPIII (in words) (recombinant LmigCSPIII [1]): strongest affinity |
| N#CCc1ccccc1 [Benzeneacetonitrile] | – | < 20 | – |
| CCCCCC(C)=O [2-heptanone] | < 20 | – | displacement of 1-NPN from LmigCSPIII (recombinant LmigCSPIII [6]): able to displace 1-NPN |
| CCCCCCCCCCCCCCCCCO [Heptadecanol] | < 20 | – | – |
| O=Cc1ccccc1 [Benzaldehyde] | – | < 20 | – |
